Among the data in patent US20110082130A1 (LIGAND PHARMACEUTICALS, INC., priority 2006, published 2011) are Ki values, retold here.

pKi: −log10 of the molar value.

The target of the first test is T1, chimeric human H3 receptor (Homo sapiens, UniProt Q9Y5N1).
T1 construct: made in house; host or cells: Sf9 insect cells (baculovirus); P2 membrane preparation
T1 sequence (Q9Y5N1 with tags, fused parts or gaps): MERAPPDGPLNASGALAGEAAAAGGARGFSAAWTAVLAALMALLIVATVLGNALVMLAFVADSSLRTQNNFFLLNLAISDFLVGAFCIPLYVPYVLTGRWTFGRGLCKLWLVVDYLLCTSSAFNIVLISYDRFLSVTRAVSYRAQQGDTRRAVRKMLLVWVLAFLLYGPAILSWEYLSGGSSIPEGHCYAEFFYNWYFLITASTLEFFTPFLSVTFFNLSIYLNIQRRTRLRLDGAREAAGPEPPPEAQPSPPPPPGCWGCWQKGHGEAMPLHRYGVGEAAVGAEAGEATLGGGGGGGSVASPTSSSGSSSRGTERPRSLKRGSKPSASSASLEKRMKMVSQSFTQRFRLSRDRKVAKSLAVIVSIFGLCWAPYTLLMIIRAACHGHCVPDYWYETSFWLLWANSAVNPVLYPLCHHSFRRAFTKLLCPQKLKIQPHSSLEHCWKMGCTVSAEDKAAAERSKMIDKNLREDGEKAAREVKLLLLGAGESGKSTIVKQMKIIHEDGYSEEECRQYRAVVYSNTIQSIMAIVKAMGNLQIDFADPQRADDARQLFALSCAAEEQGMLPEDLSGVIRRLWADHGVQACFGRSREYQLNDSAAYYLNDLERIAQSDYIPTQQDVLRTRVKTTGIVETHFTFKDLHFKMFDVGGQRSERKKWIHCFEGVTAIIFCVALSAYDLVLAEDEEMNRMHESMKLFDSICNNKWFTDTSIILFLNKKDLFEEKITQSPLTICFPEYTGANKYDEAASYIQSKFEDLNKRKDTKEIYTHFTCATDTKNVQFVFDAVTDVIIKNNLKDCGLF
The test can be described thus: Chimeric human H3 receptor GTP binding assay (agonist-stimulated GTP-gamma35S binding, Example 7). It is filed as biochemical. The following applies: Table I; P2 membranes of Sf9 cells, 1 μM histamine as agonist, Ki from IC50 by Cheng-Prusoff. Put shortly: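 Sf9 membranes co-expressing chimeric human H3 receptor and heterotrimeric G-protein, 35 μg/tube, in pH 7.4 Tris buffer with 10 μM GDP. Test compounds (10^−10–10^−6 M) competed against 1 μM histamine, […] GTP-gamma35S, 60 min at room temperature. Filter-bound radioactivity counted; IC50 converted to Ki by Cheng-Prusoff. Agonism/inverse agonism tested without histamine (EC50).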
For the compound `COc1ccc2c(c1)CCN(CC(=O)N1CCN(C3CCC3)CC1)C2c1ccccc1Cl` (centres unmarked) [Compound 62, 1-(2-chlorophenyl)-2-[2-(4-cyclobutylpiperazin-1-yl)-2-oxoethyl]-6-methoxy-1,2,3,4-tetrahydroisoquinoline], the negative-log Ki (pKi) is more than 6.00.
As to `COc1cc2c(cc1OC)CN(CC(=O)N1CCN(C(C)C)CC1)CC2` [Compound 49, 2-[2-(4-isopropylpiperazin-1-yl)-2-oxoethyl]-6,7-dimethoxy-1,2,3,4-tetrahydroisoquinoline], the pKi is more than 6.00.

The same test, now with this note: Table II "Ki", symbol *; assay of Example 7.
For `CN(C)c1cccc(-c2ccc3c(c2)CCN(CC(=O)N2CCN(C4CCC4)CC2)C3)c1` [Compound 536, 3-{2-[2-(4-cyclobutylpiperazin-1-yl)-2-oxoethyl]-1,2,3,4-tetrahydroisoquinolin-6-yl}-N,N-dimethylaniline], the negative-log Ki (pKi) is more than 6.00.
As to `COc1ccc(-c2ccc3c(c2)CCN(CC(=O)N2CCN(C4CCCC4)CC2)C3)cc1` [Compound 521, 2-[2-(4-cyclopentylpiperazin-1-yl)-2-oxoethyl]-6-(4-methoxyphenyl)-1,2,3,4-tetrahydroisoquinoline], the negative-log Ki (pKi) is more than 6.00.
As for `CC(C)CCNc1ccc2c(n1)CCN(CC(=O)N1CCN(C3CCC3)CC1)C2` [Compound 652, 6-[2-(4-cyclobutylpiperazin-1-yl)-2-oxoethyl]-N-(3-methylbutyl)-5,6,7,8-tetrahydro-1,6-naphthyridin-2-amine], the pKi is more than 6.00.
On to `CN(C)c1ccc(-c2ccc3c(c2)CCN(CC(=O)N2CCN(C4CCC4)CC2)C3)cc1` [Compound 532, 4-{2-[2-(4-cyclobutylpiperazin-1-yl)-2-oxoethyl]-1,2,3,4-tetrahydroisoquinolin-6-yl}-N,N-dimethylaniline], for which the pKi is more than 6.00.

Staying with this test, now noted: Table II; "*" = Ki in assay of Example 7 less than 1 micromolar.
For the compound `O=C(CN1CCc2cc(-n3ncc4ccccc43)ccc2C1)N1CCN(C2CCC2)CC1` [Compound 230, 2-[2-(4-cyclobutylpiperazin-1-yl)-2-oxoethyl]-6-(1H-indazol-1-yl)-1,2,3,4-tetrahydroisoquinoline], the negative logarithm of the Ki (pKi) is more than 6.00.
As to `CC1CN(C(=O)CN2CCc3nc(C(=O)NC4CCC4)ccc3C2)CCN1C1CCC1` (centres unmarked) [Compound 126, N-cyclobutyl-6-[2-(4-cyclobutyl-3-methylpiperazin-1-yl)-2-oxoethyl)-5,6,7,8-tetrahydro-1,6-naphthyridine-2-carboxamide], the pKi was more than 6.00.
As for `O=C(CN1CCc2cc(OC3CCCC3)ccc2C1)N1CCN(C2CCC2)CC1` [Compound 196, 2-[2-(4-cyclobutylpiperazin-1-yl)-2-oxoethyl]-6-(cyclopentyloxy)-1,2,3,4-tetrahydroisoquinoline], the pKi was more than 6.00.
On the same count and under the same terms, as for `CC(=O)c1ccc(-n2ncc3c2CCN(CC(=O)N2CCN(C4CCC4)CC2)C3)cc1` [Compound 92, 1-(4-{5-[2-(4-cyclobutylpiperazin-1-yl)-2-oxoethyl]-4,5,6,7-tetrahydro-1H-pyrazolo[4,3-c]pyridin-1-yl}phenyl)ethanone], the figure is more than 6.00; as for `O=C(CN1CCc2nc(-n3cccn3)ncc2C1)N1CCN(C2CCC2)CC1` [Compound 275, 6-[2-(4-cyclobutylpiperazin-1-yl)-2-oxoethyl]-2-(1H-pyrazol-1-yl)-5,6,7,8-tetrahydropyrido[4,3-d]pyrimidine], more than 6.00; as for `O=C(CN1CCc2nc(N3CCOCC3)ncc2C1)N1CCN(C2CCCC2)CC1` [Compound 140, 6-[2-(4-cyclopentylpiperazin-1-yl)-2-oxoethyl]-2-morpholin-4-yl-5,6,7,8-tetrahydropyrido[4,3-d]pyrimidine], more than 6.00.
Consider `CC1CCC[C@H]2CN(C(=O)CN3CCc4cc(Br)ccc4C3)CCN12` (stereo in doubt) [Compound 146, 2-[(6-bromo-3,4-dihydroisoquinolin-2(1H)-yl)acetyl]-6-methyloctahydro-2H-pyrido[1,2-a]pyrazine], for which the pKi was more than 6.00.
Still for that read-out and setting: under `O=C(CN1CCc2cn(-c3cncnc3)nc2C1)N1CCN(C2CCC2)CC1` [Compound 124, 6-[2-(4-cyclobutylpiperazin-1-yl)-2-oxoethyl]-2-pyrimidin-5-yl-4,5,6,7-tetrahydro-2H-pyrazolo[3,4-c]pyridine] stands more than 6.00; under `CSc1nc2c(o1)CN(CC(=O)N1CCN(C3CCC3)CC1)CC2` [Compound 107, 5-[2-(4-cyclobutylpiperazin-1-yl)-2-oxoethyl]-2-(methylthio)-4,5,6,7-tetrahydro[1.3]oxazolo [5,4-c]pyridine], more than 6.00; under `N#Cc1ccc(-n2ncc3c2CCN(CC(=O)N2CCN(C4CCC4)CC2)C3)cc1` [Compound 93, 4-{5-[2-(4-cyclobutylpiperazin-1-yl)-2-oxoethyl]-4,5,6,7-tetrahydro-1H-pyrazolo[4,3-c]pyridin-1-yl}benzonitrile], more than 6.00.
For the compound `CN(C)c1ccc2c(n1)CCN(CC(=O)N1CCN(C3CCC3)CC1)C2` [Compound 224, 6-[2-(4-cyclobutylpiperazin-1-yl)-2-oxoethyl]-N,N-dimethyl-5,6,7,8-tetrahydro-1,6-naphthyridin-2-amine], the pKi is more than 6.00.
Regarding `CCOC(=O)c1cnc2c(c1)CCN(CC(=O)N1CCN(C3CCC3)C(C)C1)C2` (centres unmarked) [Compound 117, ethyl 7-[2-(4-cyclobutyl-3-methylpiperazin-1-yl)-2-oxoethyl]-5,6,7,8-tetrahydro-1,7-naphthyridine-3-carboxylate], the pKi is more than 6.00.
On to `CN(C)c1ccc(-n2cc3c(n2)CCN(CC(=O)N2CCN(C4CCC4)CC2)C3)nn1` [Compound 259, 6-{5-[2-(4-cyclobutylpiperazin-1-yl)-2-oxoethyl]-4,5,6,7-tetrahydro-2H-pyrazolo[4,3-c]pyridin-2-yl}-N,N-dimethylpyridazin-3-amine], for which the negative-log Ki (pKi) was more than 6.00.
For the compound `O=C(CN1CCc2nc(-c3ccncc3)ncc2C1)N1CCN(C2CCC2)CC1` [Compound 137, 6-[2-(4-cyclobutylpiperazin-1-yl)-2-oxoethyl]-2-pyridin-4-yl-5,6,7,8-tetrahydropyrido[4,3-d]pyrimidine], the negative-log Ki (pKi) is more than 6.00.
Turning to `CC1CCCC1N1CCN(C(=O)CN2CCc3cc(-c4cccnn4)ccc3C2)CC1` (centres unmarked) [Compound 191, 2-{2-[4-(2-methylcyclopentyl)piperazin-1-yl]-2-oxoethyl}-6-pyridazin-3-yl-1,2,3,4-tetrahydroisoquinoline], the negative logarithm of the Ki (pKi) is more than 6.00.
With `O=C(CN1CCc2ncc(N3CCOCC3)nc2C1)N1CCN(C2CCC2)CC1` [Compound 241, 6-[2-(4-cyclobutylpiperazin-1-yl)-2-oxoethyl]-3-morpholin-4-yl-5,6,7,8-tetrahydropyrido[3,4-b]pyrazine], the pKi is more than 6.00.
Same read-out and setting: as for `CCOC(=O)c1cnc2c(c1)CCN(CC(=O)N1CCN(C3CCC3)CC1)C2` [Compound 116, ethyl 7-[2-(4-cyclobutylpiperazin-1-yl)-2-oxoethyl]-5,6,7,8-tetrahydro-1,7-naphthyridine-3-carboxylate], the figure is more than 6.00; as for `O=C(CN1CCc2nn(-c3ccc(Cl)nn3)cc2C1)N1CCN(C2CCC2)CC1` [Compound 201, 2-(6-chloropyridazin-3-yl)-5-[2-(4-cyclobutylpiperazin-1-yl)-2-oxoethyl]-4,5,6,7-tetrahydro-2H-pyrazolo[4,3-c]pyridine], more than 6.00; as for `CNC(=O)c1cnc2c(c1)CCN(CC(=O)N1CCN(C3CCC3)C(C)C1)C2` (centres unmarked) [Compound 121, 7-[2-(4-cyclobutyl-3-methylpiperazin-1-yl)-2-oxoethyl]-N-methyl-5,6,7,8-tetrahydro-1,7-naphthyridine-3-carboxamide], more than 6.00.
As for `CC1(C)CN(CC(=O)N2CCN(C3CCC3)CC2)Cc2cnc(N3CCOCC3)nc21` [Compound 239, 6-[2-(4-cyclobutylpiperazin-1-yl)-2-oxoethyl]-8,8-dimethyl-2-morpholin-4-yl-5,6,7,8-tetrahydropyrido[4,3-d]pyrimidine], the negative logarithm of the Ki (pKi) was more than 6.00.

Still in this test, the particulars now being: Table II; assay of Example 7.
In the case of `O=C(CN1CCc2nc(N3CCCC(C(F)(F)F)C3)ccc2C1)N1CCN(C2CCC2)CC1` (centres unmarked) [Compound 682, 6-[2-(4-cyclobutylpiperazin-1-yl)-2-oxoethyl]-2-[3-(trifluoromethyl)piperidin-1-yl]-5,6,7,8-tetrahydro-1,6-naphthyridine], the pKi was more than 6.00.

The same test, now with this note: assay of Example 7; "*" in Ki of Table II.
`Cc1cccc(C)c1-c1nc2c(s1)CN(CC(=O)N1CCN(C3CCC3)CC1)CC2` [Compound 363, 5-[2-(4-cyclobutylpiperazin-1-yl)-2-oxoethyl]-2-(2,6-dimethylphenyl)-4,5,6,7-tetrahydro[1,3]thiazolo [5,4-c]pyridine]: the pKi was more than 6.00.
Still for that read-out and setting: under `CCOc1ccc(-c2nc3c(s2)CN(CC(=O)N2CCN(C4CCC4)CC2)CC3)cc1` [Compound 330, 5-[2-(4-cyclobutylpiperazin-1-yl)-2-oxoethyl]-2-(4-ethoxyphenyl)-4,5,6,7-tetrahydro[1,3]thiazolo [5,4-c]pyridine] stands more than 6.00; under `CC(C)c1ccccc1-c1nc2c(s1)CN(CC(=O)N1CCN(C3CCC3)CC1)CC2` [Compound 362, 5-[2-(4-cyclobutylpiperazin-1-yl)-2-oxoethyl]-2-(2-isopropylphenyl)-4,5,6,7-tetrahydro[1,3]thiazolo [5,4-c]pyridine], more than 6.00; under `O=C(CN1CCc2nc(-c3ccc(Cl)c(Cl)c3)sc2C1)N1CCN(C2CCC2)CC1` [Compound 354, 5-[2-(4-cyclobutylpiperazin-1-yl)-2-oxoethyl]-2-(3,4-dichlorophenyl)-4,5,6,7-tetrahydro[1,3]thiazolo [5,4-c]pyridine], more than 6.00.
Turning to `O=C(CN1CCc2nc(-c3ccc4ccccc4c3)sc2C1)N1CCN(C2CCC2)CC1` [Compound 300, 5-[2-(4-cyclobutylpiperazin-1-yl)-2-oxoethyl]-2-(2-naphthyl)-4,5,6,7-tetrahydro[1,3]thiazolo [5,4-c]pyridine], the pKi was more than 6.00.
